Read-outs that look alike come from different tables or passages of the source.
Legend:
[1] = format: physicochemical; conditions: for Content of OXA/% / Content of CBT/%: 60° C.; for crystal structure: high temperature (60° C.) test
[2] = format: physicochemical; conditions: for Content of OXA/% / Content of CBT/%: light; for crystal structure: light stability test
[3] = system: Human MH7A synovial cells; assay: Proliferation of MH7A cells; format: cell-based
Procedure: Human MH7A synovial cells were cultured in vitro and measured by quantifying the number of cells 48 h after treatment Proliferation.

[4] = system: Human fibroblast-like synovial cell rheumatoid arthritis (HFLS-RA) cells; assay: Proliferation of HFLS-RA cells; format: cell-based
Procedure: Human fibroblast-like synovial cell rheumatoid arthritis (HFLS-RA) cells were cultured in vitro and their proliferation was measured by quantifying the number of cells 48 h after treatment.

[5] = Equilibrium solubility in water by HPLC; conditions: for equilibrium solubility in water (25° C.): HPLC
[6] = 48 h after treatment, 1.563-100 μg/mL

SMILES | Content of OXA/% ([1]; Day 0) [%] | Content of OXA/% ([1]; Day 1) [%] | Content of OXA/% ([1]; Day 3) [%] | Content of OXA/% ([1]; Day 5) [%] | Content of OXA/% ([1]; Day 10) [%] | Content of OXA/% ([1]; Day 15) [%] | crystal structure [1] | Content of OXA/% ([2]; Day 0) [%] | Content of OXA/% ([2]; Day 1) [%] | Content of OXA/% ([2]; Day 3) [%] | Content of OXA/% ([2]; Day 5) [%] | Content of OXA/% ([2]; Day 10) [%] | Content of OXA/% ([2]; Day 15) [%] | Content of CBT/% ([1]; Day 0) [%] | Content of CBT/% ([1]; Day 1) [%] | Content of CBT/% ([1]; Day 3) [%] | Content of CBT/% ([1]; Day 5) [%] | Content of CBT/% ([1]; Day 10) [%] | Content of CBT/% ([1]; Day 15) [%] | crystal structure [2] | other results
CCN(CC)CCCC(C)Nc1ccnc2cc(Cl)ccc12.O=C1[O][Pt]2([NH]C3CCCCC3[NH]2)[O]C1=O (centres unmarked) [OXA-U72, oxaliplatin-chloroquine cocrystal] | 100 | 100 | 99.38 | 99.46 | 99.33 | 99.46 | unchanged | 100 | 100 | 99.21 | 99.64 | 99.33 | 99.64 |  |  |  |  |  |  |  | 
CCN(CC)CCCC(C)Nc1ccnc2cc(Cl)ccc12.[NH2][Pt]1([NH2])[O]C(=O)C2(CCC2)C(=O)[O]1 (centres unmarked) [CBT-U72, carboplatin-chloroquine cocrystal] |  |  |  |  |  |  | unchanged |  |  |  |  |  |  | 100 | 100 | 99.66 | 99.84 | 99.67 | 99.97 |  | Content of CBT/% ([2]; Day 0): 100%; Content of CBT/% ([2]; Day 1): 100%; Content of CBT/% ([2]; Day 3): 99.20%; Content of CBT/% ([2]; Day 5): 99.24%; Content of CBT/% ([2]; Day 10): 99.57%; Content of CBT/% ([2]; Day 15): 99.92%
O=C1[O][Pt]2([NH][C@@H]3CCCC[C@H]3[NH]2)[O]C1=O [OXA, oxaliplatin, reference compound] | 100 | 98.36 | 99.33 | 99.18 | 99.09 | 98.21 | unchanged | 100 | 98.87 | 99.32 | 96.89 | 99.45 | 98.01 |  |  |  |  |  |  | unchanged | IC50, proliferation of MH7A [3, 6]: 8.91 µg/mL; proliferation of MH7A cells inhibited ([3]; FIG. 7): 99%; IC50, proliferation of HFLS-RA [4, 6]: 4.56 µg/mL; proliferation of HFLS-RA cells inhibited ([4]; FIG. 6): 99%
N.N.O=C([O-])C1(C(=O)[O-])CCC1.[Pt+2] [CBT, carboplatin, reference compound] |  |  |  |  |  |  | unchanged |  |  |  |  |  |  | 100 | 99.76 | 99.29 | 99.16 | 99.27 | 99.82 | unchanged | equilibrium solubility in water (25° C.) [5]: 12.7 mg/mL; Content of CBT/% ([2]; Day 0): 100%; Content of CBT/% ([2]; Day 1): 99.37%; Content of CBT/% ([2]; Day 3): 99.84%; Content of CBT/% ([2]; Day 5): 99.31%; Content of CBT/% ([2]; Day 10): 98.29%; Content of CBT/% ([2]; Day 15): 98.82%
O=C1[O][Pt]2([NH]C3CCCCC3[NH]2)[O]C1=O.OCC1OC(Oc2cc(O)cc(C=Cc3ccc(O)cc3)c2)C(O)C(O)C1O (centres unmarked) [OXA-PDT, oxaliplatin-polydatin cocrystal] | 100 | 100 | 100 | 99.73 | 99.63 | 99.87 | unchanged | 100 | 100 | 99.97 | 99.88 | 99.44 | 99.91 |  |  |  |  |  |  | unchanged | 
OCC1OC(Oc2cc(O)cc(C=Cc3ccc(O)cc3)c2)C(O)C(O)C1O.[NH2][Pt]1([NH2])[O]C(=O)C2(CCC2)C(=O)[O]1 (centres unmarked) [CBT-PDT, carboplatin-polydatin cocrystal] |  |  |  |  |  |  | unchanged |  |  |  |  |  |  | 100 | 100 | 99.27 | 99.08 | 99.69 | 99.83 | unchanged | equilibrium solubility in aqueous solution compared with oxaliplatin or carboplatin, respectively ([5]; aqueous solution, versus parent platinum drug): higher; equilibrium solubility in water (25° C.) [5]: 16.2 mg/mL; Content of CBT/% ([2]; Day 0): 100%; Content of CBT/% ([2]; Day 1): 100%; Content of CBT/% ([2]; Day 3): 100%; Content of CBT/% ([2]; Day 5): 99.60%; Content of CBT/% ([2]; Day 10): 99.72%; Content of CBT/% ([2]; Day 15): 99.29%
O=C(O)C1(C(=O)O)CCC1.O=C1[O][Pt]2([NH]C3CCCCC3[NH]2)[O]C1=O (centres unmarked) [OXA-CBDA, oxaliplatin-1,1-cyclobutane dicarboxylic acid cocrystal] | 100 | 100 | 99.98 | 99.12 | 99.45 | 99.57 |  | 100 | 100 | 100 | 99.56 | 99.97 | 99.30 |  |  |  |  |  |  |  | 

— patent US20250387405A1 (priority 2021, published 2025)
